Measurements: US20050208496A1, “Methods of testing for bronchial asthma or chronic obstructive pulmonary disease” (Genox Research, Inc., priority 2002, published 2005)
Values joined by “and” are separate entries in the source; they are usually repeats but may differ in a detail not shown here. Equal entries are not always repeated.

Tested on: mouse counterpart genes
Test: Mouse GeneChip (MG-U74A to MG-U74C) analysis of lung and trachea of the OVA antigen-exposed bronchial hypersensitivity model, S-Sal group versus S-OVA group
Assay type: in vivo
[1] = S-Sal vs S-OVA group, 2nd, P/A: P
[2] = S-Sal vs S-OVA group, 3rd, P/A: A
[3] = S-Sal vs S-OVA group, 3rd, P/A: P

How did the “Fold Change, cathepsin C (mouse Probe ID 101019_at)” value [1] turn out when “ovalbumin [OVA antigen, ovalbumin antigen used for sensitization and inhalation to induce bronchial hypersensitivity in mice]” was run?
The value was 1.1.

What about the “Fold Change, dual specificity phosphatase 14 (mouse Probe ID 162702_at)” value [1] of the same substance?
The value was 1.1.

And the “Fold Change, expressed sequence AI839647 (mouse Probe ID 110839_at)” value [1]?
The value was 0.833.

And the “Fold Change, integrin-associated protein (mouse Probe ID 103611_at)” value [1]?
Its value is 1.

And the “Fold Change, neutrophil cytosolic factor 2 (mouse Probe ID 102326_at)” value [1]?
Its value is 2.2.

And the “Fold Change, reticulocalbin 2 (mouse Probe ID 93281_at)” value [1]?
Its value is 0.833.

And the “Fold Change, ribosomal protein S16 (mouse Probe ID 97647_at)” value [1]?
Its value is 1.

What about the “Fold Change, serine (or cysteine) proteinase inhibitor, clade B (ovalbumin), member 2 (mouse Probe ID 92978_s_at)” value [1] of the same substance?
The value was 0.455.

And the “Fold Change, signal transducer and activator of transcription 1 (mouse Probe ID 101465_at)” value [1]?
The value was 1.6.

What about the “Fold Change, signal transducer and activator of transcription 1 (mouse Probe ID 114635_at)” value [1] of the same substance?
Its value is 1.9.

And the “Fold Change, zinc finger protein 263 (mouse Probe ID 109154_at)” value (from here on “Fold Change … (mouse Probe ID 109154_at)”) [1]?
The value was 0.833.

What about the “Fold Change, DNA-damage inducible transcript 3 (mouse Probe ID 101429_at)” value [2] of the same substance?
Its value is 0.625.

What about the “Fold Change, RAS guanyl releasing protein 1 (mouse Probe ID 98307_at)” value [2] of the same substance?
The value was 1.3.

And the “Fold Change, RAS guanyl releasing protein 1 (mouse Probe ID 167498_i_at)” value [2]?
The value was 2.4.

What about the “Fold Change, RIKEN cDNA A2301D9K23 gene (mouse Probe ID 163453_at)” value [2] of the same substance?
Its value is 1.4.

And the “Fold Change, acid phosphatase 5, tartrate resistant (mouse Probe ID 162543_r_at)” value [2]?
Its value is 8.7.

And the “Fold Change, cathepsin C (mouse Probe ID 161251_f_at)” value [2]?
Its value is 1.2.

What about the “Fold Change, dual specificity phosphatase 14 (mouse Probe ID 165144_r_at)” value [2] of the same substance?
Its value is 1.1.

And the “Fold Change, dual specificity phosphatase 14 (mouse Probe ID 171285_at)” value [2]?
The value was 2.3.

And the “Fold Change, keratin complex 1, acidic, gene 16 (mouse Probe ID 103589_at)” value [2]?
The value was 1.1.

What about the “Fold Change, keratin complex 1, acidic, gene 16 (mouse Probe ID 164428_i_at)” value [2] of the same substance?
The value was 0.625.

What about the “Fold Change, nuclear factor, interleukin 3, regulated (mouse Probe ID 164758_i_at)” value [2] of the same substance?
The value was 1.3.

And the “Fold Change, ribosomal protein S16 (mouse Probe ID 169860_r_at)” value [2]?
The value was 1.1.

What about the “Fold Change, serine (or cysteine) proteinase inhibitor, clade B (ovalbumin), member 2 (mouse Probe ID 92978_s_at)” value [2] of the same substance?
Its value is 1.7.

What about the “Fold Change, serine (or cysteine) proteinase inhibitor, clade B (ovalbumin), member 2 (mouse Probe ID 137166_r_at)” value [2] of the same substance?
The value was 1.2.

What about the “Fold Change, ubiquitin D (mouse Probe ID 92715_at)” value [2] of the same substance?
Its value is 0.625.

And the “Fold Change, ubiquitin D (mouse Probe ID 168938_r_at)” value [2]?
The value was 1.4.

What about the “Fold Change, ubiquitin D (mouse Probe ID 169362_f_at)” value [2] of the same substance?
Its value is 0.667.

And the “Fold Change, DEAD (aspartate-glutamate-alanine-aspartate) box polypeptide 5 (mouse Probe ID 93493_at)” value [3]?
The value was 1.1.

And the “Fold Change, DEAD (aspartate-glutamate-alanine-aspartate) box polypeptide 5 (mouse Probe ID 113899_at)” value [3]?
Its value is 1.4.

What about the “Fold Change, RIKEN cDNA 4933419D20 gene (mouse Probe ID 97442_at)” value [3] of the same substance?
The value was 0.833.

What about the “Fold Change, RIKEN cDNA 4933419D20 gene (mouse Probe ID 112237_at)” value [3] of the same substance?
Its value is 1.

What about the “Fold Change, acid phosphatase 5, tartrate resistant (mouse Probe ID 98859_at)” value [3] of the same substance?
Its value is 1.7.

And the “Fold Change, cathepsin C (mouse Probe ID 101019_at)” value [3]?
Its value is 1.

And the “Fold Change, cytokine inducible SH2-containing protein 1 (mouse Probe ID 92832_at)” value [3]?
Its value is 1.5.

What about the “Fold Change, dual specificity phosphatase 14 (mouse Probe ID 162702_at)” value [3] of the same substance?
The value was 1.

What about the “Fold Change, expressed sequence AI463430 (mouse Probe ID 112883_at)” value [3] of the same substance?
The value was 1.5.

And the “Fold Change, fatty acid binding protein 4, adipocyte (mouse Probe ID 100567_at)” value [3]?
The value was 1.1.

And the “Fold Change, integrin-associated protein (mouse Probe ID 103611_at)” value [3]?
Its value is 1.

What about the “Fold Change, neutrophil cytosolic factor 2 (mouse Probe ID 102326_at)” value [3] of the same substance?
Its value is 1.2.

What about the “Fold Change, ribosomal protein S16 (mouse Probe ID 97647_at)” value [3] of the same substance?
The value was 1.

What about the “Fold Change, signal transducer and activator of transcription 1 (mouse Probe ID 101465_at)” value [3] of the same substance?
Its value is 1.

And the “Fold Change, signal transducer and activator of transcription 1 (mouse Probe ID 114635_at)” value [3]?
The value was 1.1.

And the “Fold Change, ubiquitin fusion degradation 1 like (mouse Probe ID 93303_at)” value [3]?
Its value is 1.3.

And the “Fold Change … (mouse Probe ID 109154_at)” value [3]?
Its value is 1.3.

What about the “Fold Change, A kinase (PRKA) anchor protein 10 (mouse probe 163162_at)” value (mouse, in vivo) of the same substance?
The value was 0.769.

And the “Fold Change, DNA segment. Chr 16. ERATO Doi 269, expressed (mouse probe 97821_at)” value (mouse, in vivo)?
Its value is 0.909.

What about the “Fold Change, DNA segment. Chr 16. ERATO Doi 269, expressed (mouse probe 97822_at)” value (mouse, in vivo) of the same substance?
The value was 0.909.

What about the “Fold Change, DnaJ (Hsp40) homolog, subfamily A, member 1 (mouse Probe ID 97261_at)” value (mouse, in vivo) of the same substance?
Its value is 0.909.

What about the “Fold Change, ESTs AI844322 (mouse Probe ID 110469_at)” value (mouse, in vivo) of the same substance?
Its value is 0.909 and 0.769.

What about the “Fold Change, MP and activin membrane-bound inhibitor, homolog (Xanopus laevis) (mouse probe 162531_at)” value (mouse, in vivo) of the same substance?
Its value is 0.769.

And the “Fold Change, RIKEN cDNA 6330404C01 gene (mouse Probe ID 166590_at)” value (mouse, in vivo)?
Its value is 0.769.

What about the “Fold Change, RIKEN cDNA A2301D9K23 gene (mouse Probe ID 166475_r_at)” value (mouse, in vivo) of the same substance?
Its value is 0.714.

And the “Fold Change, SAM domain and HD domain, 1 (mouse Probe ID 103080_at)” value (mouse, in vivo)?
The value was 0.909.

And the “Fold Change, a disintegrin and metalloprotease domain 8 (mouse probe 103024_at)” value (mouse, in vivo)?
Its value is 0.769.

What about the “Fold Change, a disintegrin and metalloprotease domain 28 (mouse probe 101723_r_at)” value (mouse, in vivo) of the same substance?
The value was 0.714 and 0.769.

What about the “Fold Change, acid phosphatase 5, tartrate resistant (mouse Probe ID 98859_at)” value (mouse, in vivo) of the same substance?
Its value is 0.769.

What about the “Fold Change, cadherin 6 (mouse Probe ID 101730_at)” value (mouse, in vivo) of the same substance?
The value was 0.714.

What about the “Fold Change, cathepsin C (mouse Probe ID 101020_at)” value (mouse, in vivo) of the same substance?
Its value is 0.909.

And the “Fold Change, cholesterol 25-hydroxylase (mouse probe 133666_at)” value (mouse, in vivo)?
The value was 0.909 and 0.769.

And the “Fold Change, claudin 5 (mouse probe 104516_at)” value (mouse, in vivo)?
Its value is 0.769.

And the “Fold Change, decay accelerating factor 1 (mouse probe 164905_r_at)” value (mouse, in vivo)?
The value was 0.769.

What about the “Fold Change, dipeptidylpeptidase 4 (mouse Probe ID 92634_at)” value (mouse, in vivo) of the same substance?
Its value is 0.714.

What about the “Fold Change, dual specificity phosphatase 14 (mouse Probe ID 171285_at)” value (mouse, in vivo) of the same substance?
The value was 0.909.

What about the “Fold Change, expressed sequence AI463430 (mouse Probe ID 112883_at)” value (mouse, in vivo) of the same substance?
The value was 0.909.

What about the “Fold Change, expressed sequence AI839647 (mouse Probe ID 110839_at)” value (mouse, in vivo) of the same substance?
The value was 0.909.

What about the “Fold Change, fatty acid binding protein 4, adipocyte (mouse Probe ID 100567_at)” value (mouse, in vivo) of the same substance?
The value was 0.714.

And the “Fold Change, fetuin beta (mouse Probe ID 108524_at)” value (mouse, in vivo)?
The value was 0.714.

And the “Fold Change, fructose bisphosphatase 1 (mouse Probe ID 96918_at)” value (mouse, in vivo)?
Its value is 0.769.

And the “Fold Change, growth arrest and DNA-damage-inducible 45 gamma (mouse Probe ID 109336_at)” value (mouse, in vivo)?
The value was 0.909.

And the “Fold Change, hydroxysteroid (17-beta) dehydrogenase 2 (mouse Probe ID 101891_at)” value (mouse, in vivo)?
Its value is 0.909.

What about the “Fold Change, hydroxysteroid (17-beta) dehydrogenase 2 (mouse Probe ID 166141_i_at)” value (mouse, in vivo) of the same substance?
The value was 0.714.

And the “Fold Change, hydroxysteroid (17-beta) dehydrogenase 2 (mouse Probe ID 169670_at)” value (mouse, in vivo)?
Its value is 0.769 and 0.909.

And the “Fold Change, intercellular adhesion molecule (mouse Probe ID 96752_at)” value (mouse, in vivo)?
The value was 0.714.

And the “Fold Change, interferon gamma inducible protein 30 (mouse probe 164423_at)” value (mouse, in vivo)?
The value was 0.714.

What about the “Fold Change, interleukin 1 receptor-like 1 (mouse probe 98501_at)” value (mouse, in vivo) of the same substance?
The value was 0.769.

And the “Fold Change, low density lipoprotein receptor-related protein associated protein 1 (mouse probe 100086_at)” value (mouse, in vivo)?
Its value is 0.714.

And the “Fold Change, low density lipoprotein receptor-related protein associated protein 1 (mouse probe 161988_f_at)” value (mouse, in vivo)?
The value was 0.714.

What about the “Fold Change, matrix metalloproteinase 7 (mouse probe 162318_r_at)” value (mouse, in vivo) of the same substance?
Its value is 0.769.

And the “Fold Change, membrane-associated protein 17 (mouse probe 96935_at)” value (mouse, in vivo)?
The value was 0.909.

And the “Fold Change, neurotrophic tyrosine kinase, receptor type 1 (mouse probe 110116_at)” value (mouse, in vivo)?
Its value is 0.909.

And the “Fold Change, nitric oxide synthase 2, inducible, macrophage (mouse Probe ID 104420_at)” value (mouse, in vivo)?
Its value is 0.714.

What about the “Fold Change, nuclear factor, interleukin 3, regulated (mouse Probe ID 164758_i_at)” value (mouse, in vivo) of the same substance?
The value was 0.714.

And the “Fold Change, osteoblast specific factor 2 (fasciclin I-like) (mouse Probe ID 92593_at)” value (mouse, in vivo)?
Its value is 0.909.

What about the “Fold Change, phosphotidylinositol transfer protein, beta (mouse probe 102696_s_at)” value (mouse, in vivo) of the same substance?
Its value is 0.714.

And the “Fold Change, polycystic kidney disease 2 (mouse probe 100951_at)” value (mouse, in vivo)?
The value was 0.769.

And the “Fold Change, procollagen lysine, 2-oxoglutarate 5-dioxygenase 2 (mouse Probe ID 114376_at)” value (mouse, in vivo)?
Its value is 0.909.

What about the “Fold Change, reticulocalbin 2 (mouse Probe ID 93281_at)” value (mouse, in vivo) of the same substance?
The value was 0.909.

And the “Fold Change, serine (or cysteine) proteinase inhibitor, clade B (ovalbumin), member 6 (mouse Probe ID 96060_at)” value (mouse, in vivo)?
Its value is 0.714.

What about the “Fold Change, sialyltransferase 1 (beta-galactoside alpha-2,6-sialyltransferase) (mouse Probe ID 167200_r_at)” value (mouse, in vivo) of the same substance?
Its value is 0.769 and 0.909.

What about the “Fold Change, thioredoxin reductase 1 (mouse Probe ID 99985_at)” value (mouse, in vivo) of the same substance?
The value was 0.909.

And the “Fold Change, thioredoxin reductase 1 (mouse Probe ID 161284_r_at)” value (mouse, in vivo)?
The value was 0.909 and 0.769.

And the “Fold Change, transforming growth factor, beta 2 (mouse Probe ID 93300_at)” value (mouse, in vivo)?
The value was 0.769.

What about the “Fold Change, transmembrane 4 superfamily member 8 (mouse Probe ID 97912_at)” value (mouse, in vivo) of the same substance?
Its value is 0.769.

What about the “Fold Change, ubiquitin D (mouse Probe ID 92715_at)” value (mouse, in vivo) of the same substance?
The value was 0.714.

What about the “Fold Change … (mouse Probe ID 109154_at)” value (mouse, in vivo) of the same substance?
Its value is 0.769.
